Measurements published in patent US10561658B2, “Thieno- and pyrrolopyrimidine analogues as anticancer agents and methods of use thereof” (UNIVERSITY OF MARYLAND, BALTIMORE COUNTY, priority 2015, dated 2020).

Tests used:
MDA-MB-231 cells = assay: Apoptosis (annexin V), MDA-MB-231; assay type: cell-based, human; settings: MDA-MB-231, tested concentration
Experimental: Cell-cycle and apoptosis studies were conducted in MDA-MB-231 cells. Cell-cycle analysis of compound 19 at 15 μM concentration lead to arrest of 60% cells in G2/M stage. Similarly, at 1.75 μM concentration, compound 20 arrested 30% of cells in G2/M stage. […] To evaluate the possible mechanism for arrest of cell proliferation, cell-cycle distribution was measured using propidium iodide staining and flow cytometry. […] There are several possibilities that could account for this, including: (i) that cell lysis occurs rapidly following induction of apoptosis, preventing significant accumulation of annexin V-positive bodies, or (ii) that a distinct cell death pathway is triggered by compound 19.

[1] = test system: human cervix carcinoma HeLa cells; assay: Cell proliferation assay, HeLa; assay type: cell-based; settings: 72 h proliferation, Coulter counter
Experimental: Cell proliferation assays for several of the compounds were performed on L1210, a mouse lymphocytic leukemia cell line; CCRF-CEM [39] an acute lymphoblastic leukemia cell line; and HeLa, a human cancer cell line derived from a human cervical adenocarcinoma. Murine Leukemia L1210, human lymphocytic CEM and human cervix carcinoma HeLa cells were obtained from the American Type Culture Collection (ATCC) (Rockville, Md.). All assays were performed in 96-well microtiter plates. To each well were added (5-7.5)×10^4 tumor cells and a given amount of the test compound. The cells were allowed to proliferate for 48 h (murine leukemia L1210 cells) or 72 h (human lymphocytic CEM and human cervix carcinoma HeLa cells) at 37° C. in a humidified CO2-controlled atmosphere. At the end of the incubation period, the cells were counted in a Coulter counter. The IC50 (50% inhibitory concentration) was defined as the concentration of the compound that inhibited cell proliferation by 50%. […] Presence of C7 iodine on the 2,4-dichloro pyrrolo[3,2-d] (compound 20) increases the anticancer activity by a factor of 5 when compared to compound 19. […] This alludes to a) importance of C7-I towards activity against cancer cell lines for the 2,4-O-benzylated analogues (15 and 16).

PRKCN (PKD3) = PRKCN (PKD3) (Homo sapiens, UniProt O94806); assay: Select Screen kinase profiling; assay type: biochemical
Text: (§1) The thieno[3,2-d]pyrimidine scaffold has been used extensively in the design of kinase inhibitors.

MET (cMet) = MET (cMet) (Homo sapiens, UniProt P08581); assay: Select Screen kinase profiling; assay type: biochemical
Chain of MET (cMet) (P08581 25-1390): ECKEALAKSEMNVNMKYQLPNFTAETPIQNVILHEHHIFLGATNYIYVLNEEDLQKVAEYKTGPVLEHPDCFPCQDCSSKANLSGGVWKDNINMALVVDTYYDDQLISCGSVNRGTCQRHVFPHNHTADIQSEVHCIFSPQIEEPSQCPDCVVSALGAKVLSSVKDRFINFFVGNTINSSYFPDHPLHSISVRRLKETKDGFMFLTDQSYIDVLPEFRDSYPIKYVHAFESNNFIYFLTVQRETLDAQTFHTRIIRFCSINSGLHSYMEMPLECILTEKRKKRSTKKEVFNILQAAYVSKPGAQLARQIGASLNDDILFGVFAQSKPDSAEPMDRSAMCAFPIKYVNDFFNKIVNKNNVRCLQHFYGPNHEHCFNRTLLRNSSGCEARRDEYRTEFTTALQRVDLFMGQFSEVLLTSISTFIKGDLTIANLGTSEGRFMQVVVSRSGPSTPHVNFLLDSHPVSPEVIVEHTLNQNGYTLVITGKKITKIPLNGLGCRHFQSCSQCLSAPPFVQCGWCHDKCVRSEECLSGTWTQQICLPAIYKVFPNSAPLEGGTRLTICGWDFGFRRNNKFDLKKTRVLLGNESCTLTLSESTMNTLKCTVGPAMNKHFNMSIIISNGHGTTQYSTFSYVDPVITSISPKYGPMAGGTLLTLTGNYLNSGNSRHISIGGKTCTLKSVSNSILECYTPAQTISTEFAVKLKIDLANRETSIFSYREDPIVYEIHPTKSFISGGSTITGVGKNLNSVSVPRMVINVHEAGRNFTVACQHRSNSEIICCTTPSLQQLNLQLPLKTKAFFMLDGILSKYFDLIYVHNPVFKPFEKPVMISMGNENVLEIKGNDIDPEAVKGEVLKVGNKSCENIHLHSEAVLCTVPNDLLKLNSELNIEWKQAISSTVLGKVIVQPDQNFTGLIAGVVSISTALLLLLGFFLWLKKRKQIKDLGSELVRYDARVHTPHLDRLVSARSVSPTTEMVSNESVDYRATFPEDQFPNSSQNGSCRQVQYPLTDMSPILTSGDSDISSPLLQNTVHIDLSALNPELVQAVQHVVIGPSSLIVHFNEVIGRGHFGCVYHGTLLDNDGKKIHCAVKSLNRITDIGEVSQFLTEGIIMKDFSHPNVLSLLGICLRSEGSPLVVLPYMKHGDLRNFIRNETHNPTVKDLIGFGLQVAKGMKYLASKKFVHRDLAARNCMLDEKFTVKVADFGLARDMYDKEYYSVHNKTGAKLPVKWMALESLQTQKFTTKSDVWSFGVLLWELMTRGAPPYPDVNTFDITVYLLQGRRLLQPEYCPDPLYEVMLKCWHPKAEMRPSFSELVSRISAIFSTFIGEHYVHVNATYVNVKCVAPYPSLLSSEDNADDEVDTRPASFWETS
Text: as §1

FRAP1 (mTOR) = FRAP1 (mTOR) (Homo sapiens, UniProt P42345); assay: Select Screen kinase profiling; assay type: biochemical
Text: as §1

JAK1 = JAK1 (Homo sapiens, UniProt P23458); assay: Select Screen kinase profiling; assay type: biochemical
Chain of JAK1 (P23458 whole entry): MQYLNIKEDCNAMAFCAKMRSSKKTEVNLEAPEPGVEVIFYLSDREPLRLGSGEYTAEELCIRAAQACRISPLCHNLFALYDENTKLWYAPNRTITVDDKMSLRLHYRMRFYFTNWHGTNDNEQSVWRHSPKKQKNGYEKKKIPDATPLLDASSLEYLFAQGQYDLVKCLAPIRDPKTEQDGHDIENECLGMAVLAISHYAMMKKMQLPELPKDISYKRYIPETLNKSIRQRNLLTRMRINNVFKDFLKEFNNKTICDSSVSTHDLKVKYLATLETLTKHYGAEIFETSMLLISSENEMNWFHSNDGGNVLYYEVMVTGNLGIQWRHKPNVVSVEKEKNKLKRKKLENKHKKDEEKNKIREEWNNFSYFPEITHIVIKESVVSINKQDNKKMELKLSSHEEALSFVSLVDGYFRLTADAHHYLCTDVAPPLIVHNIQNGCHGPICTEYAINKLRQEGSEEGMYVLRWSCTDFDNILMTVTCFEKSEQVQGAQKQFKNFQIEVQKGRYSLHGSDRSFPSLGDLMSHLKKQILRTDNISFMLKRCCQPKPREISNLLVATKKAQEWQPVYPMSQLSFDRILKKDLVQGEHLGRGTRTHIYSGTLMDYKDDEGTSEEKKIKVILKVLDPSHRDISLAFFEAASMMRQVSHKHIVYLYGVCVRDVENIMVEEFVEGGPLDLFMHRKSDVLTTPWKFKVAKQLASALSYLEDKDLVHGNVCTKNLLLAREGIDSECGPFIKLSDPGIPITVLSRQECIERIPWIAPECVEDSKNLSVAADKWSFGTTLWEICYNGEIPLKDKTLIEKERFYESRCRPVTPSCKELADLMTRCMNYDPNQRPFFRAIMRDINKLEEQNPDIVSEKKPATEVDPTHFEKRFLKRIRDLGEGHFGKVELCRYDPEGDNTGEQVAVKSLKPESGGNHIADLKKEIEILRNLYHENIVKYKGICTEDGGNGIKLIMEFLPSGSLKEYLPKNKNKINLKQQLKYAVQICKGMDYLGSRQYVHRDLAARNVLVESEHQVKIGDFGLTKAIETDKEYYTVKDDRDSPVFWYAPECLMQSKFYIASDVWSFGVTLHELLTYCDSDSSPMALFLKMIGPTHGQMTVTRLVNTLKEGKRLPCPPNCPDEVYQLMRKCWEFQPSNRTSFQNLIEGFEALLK
Text: as §1

PIK3CD/PIK3R1 = PIK3CD/PIK3R1 (Homo sapiens, UniProt O00329); assay: Select Screen kinase profiling; assay type: biochemical
Text: as §1

PIK3CA/PIK3R1 = PIK3CA/PIK3R1 (Homo sapiens, UniProt P42336); assay: Select Screen kinase profiling; assay type: biochemical
Text: as §1

SRC N1 = SRC N1 (Homo sapiens, UniProt P12931); assay: Select Screen kinase profiling; assay type: biochemical
Text: as §1

PIK3C3 = PIK3C3 (Homo sapiens, UniProt Q8NEB9); assay: Select Screen kinase profiling; assay type: biochemical
Text: as §1

PIK3C2B = PIK3C2B (Homo sapiens, UniProt O00750); assay: Select Screen kinase profiling; assay type: biochemical
Text: as §1

JAK2 JHI JH2 = biological target: T1, JAK2 JHI JH2 (Homo sapiens, UniProt O60674); assay: Select Screen kinase profiling; assay type: biochemical
T1 construct: JAK2 JHI JH2
Text: as §1

PRKD1 (PKC mu) = PRKD1 (PKC mu) (Homo sapiens, UniProt Q15139); assay: Select Screen kinase profiling; assay type: biochemical
Text: as §1

LTK (TYK1) = LTK (TYK1) (Homo sapiens, UniProt P29376); assay: Select Screen kinase profiling; assay type: biochemical
Text: as §1

JAK2 = JAK2 (Homo sapiens, UniProt O60674); assay: Select Screen kinase profiling; assay type: biochemical
Text: as §1

TYK2 = TYK2 (Homo sapiens, UniProt P29597); assay: Select Screen kinase profiling; assay type: biochemical
Chain of TYK2 (P29597 whole entry): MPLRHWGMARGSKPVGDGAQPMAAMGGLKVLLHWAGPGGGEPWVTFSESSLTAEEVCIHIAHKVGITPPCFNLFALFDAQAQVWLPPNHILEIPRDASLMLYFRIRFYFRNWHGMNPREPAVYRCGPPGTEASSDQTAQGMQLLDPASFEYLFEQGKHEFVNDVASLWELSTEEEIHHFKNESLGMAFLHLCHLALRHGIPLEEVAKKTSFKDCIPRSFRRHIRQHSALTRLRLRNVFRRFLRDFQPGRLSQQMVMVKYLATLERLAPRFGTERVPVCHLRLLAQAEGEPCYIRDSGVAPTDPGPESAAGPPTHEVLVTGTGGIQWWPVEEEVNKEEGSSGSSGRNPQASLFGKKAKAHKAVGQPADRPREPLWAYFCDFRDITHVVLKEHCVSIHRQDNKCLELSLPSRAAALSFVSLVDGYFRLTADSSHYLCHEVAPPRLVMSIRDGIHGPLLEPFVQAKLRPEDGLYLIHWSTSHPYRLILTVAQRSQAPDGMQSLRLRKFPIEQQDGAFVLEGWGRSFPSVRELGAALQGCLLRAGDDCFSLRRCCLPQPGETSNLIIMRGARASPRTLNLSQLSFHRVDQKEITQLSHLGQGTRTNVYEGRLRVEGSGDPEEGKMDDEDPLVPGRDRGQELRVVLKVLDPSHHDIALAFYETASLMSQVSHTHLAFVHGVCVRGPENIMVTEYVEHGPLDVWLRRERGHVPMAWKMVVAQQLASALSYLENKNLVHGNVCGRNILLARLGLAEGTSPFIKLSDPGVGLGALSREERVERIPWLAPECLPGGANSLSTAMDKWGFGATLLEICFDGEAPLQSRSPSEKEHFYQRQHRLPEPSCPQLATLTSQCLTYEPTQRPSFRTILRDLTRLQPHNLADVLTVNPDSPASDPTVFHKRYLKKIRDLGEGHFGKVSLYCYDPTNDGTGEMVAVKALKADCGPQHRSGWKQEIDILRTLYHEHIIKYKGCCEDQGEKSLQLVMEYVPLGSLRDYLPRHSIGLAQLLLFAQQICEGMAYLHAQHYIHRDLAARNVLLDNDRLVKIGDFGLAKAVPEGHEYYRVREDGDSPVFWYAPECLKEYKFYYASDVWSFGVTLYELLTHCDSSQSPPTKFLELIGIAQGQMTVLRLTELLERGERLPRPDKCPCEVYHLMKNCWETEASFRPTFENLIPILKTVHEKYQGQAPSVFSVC
Text: as §1

JAK3 = JAK3 (Homo sapiens, UniProt P52333); assay: Select Screen kinase profiling; assay type: biochemical
Chain of JAK3 (P52333 whole entry): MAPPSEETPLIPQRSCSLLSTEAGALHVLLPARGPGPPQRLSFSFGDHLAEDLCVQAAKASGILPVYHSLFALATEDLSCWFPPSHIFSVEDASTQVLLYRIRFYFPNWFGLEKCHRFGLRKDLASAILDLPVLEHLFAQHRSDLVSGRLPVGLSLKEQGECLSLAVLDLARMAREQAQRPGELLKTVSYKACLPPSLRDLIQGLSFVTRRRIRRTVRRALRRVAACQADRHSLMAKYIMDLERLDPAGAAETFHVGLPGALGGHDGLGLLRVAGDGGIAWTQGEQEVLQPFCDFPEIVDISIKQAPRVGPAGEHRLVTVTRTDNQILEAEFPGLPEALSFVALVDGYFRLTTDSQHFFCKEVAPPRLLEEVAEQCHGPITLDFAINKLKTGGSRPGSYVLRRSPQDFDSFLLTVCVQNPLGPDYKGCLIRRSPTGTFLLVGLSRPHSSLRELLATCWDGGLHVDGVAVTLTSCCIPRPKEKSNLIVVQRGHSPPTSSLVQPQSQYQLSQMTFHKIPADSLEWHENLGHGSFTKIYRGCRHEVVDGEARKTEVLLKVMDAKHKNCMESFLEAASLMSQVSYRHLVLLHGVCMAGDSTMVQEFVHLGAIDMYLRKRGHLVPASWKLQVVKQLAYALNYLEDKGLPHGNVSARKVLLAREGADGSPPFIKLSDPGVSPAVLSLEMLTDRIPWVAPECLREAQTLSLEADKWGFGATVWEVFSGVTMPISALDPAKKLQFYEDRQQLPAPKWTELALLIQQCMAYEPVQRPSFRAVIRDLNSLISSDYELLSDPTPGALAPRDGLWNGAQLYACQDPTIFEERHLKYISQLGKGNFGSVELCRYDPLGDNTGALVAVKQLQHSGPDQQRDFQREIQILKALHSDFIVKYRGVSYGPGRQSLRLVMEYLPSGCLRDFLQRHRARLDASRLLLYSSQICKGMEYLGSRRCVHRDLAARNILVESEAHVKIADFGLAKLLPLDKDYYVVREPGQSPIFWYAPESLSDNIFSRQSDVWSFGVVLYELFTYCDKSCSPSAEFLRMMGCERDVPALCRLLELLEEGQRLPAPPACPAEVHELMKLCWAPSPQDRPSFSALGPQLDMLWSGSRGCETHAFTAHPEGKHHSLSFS
Text: as §1

JAK2 JH1 JH2 V617F = biological target: T2, JAK2 JH1 JH2 V617F (Homo sapiens, UniProt O60674, V617F); assay: Select Screen kinase profiling; assay type: biochemical
T2 construct: JAK2 JH1 JH2 V617F
Text: as §1

SRC = SRC (Homo sapiens, UniProt P12931); assay: Select Screen kinase profiling; assay type: biochemical
Text: as §1

PRKD2 (PKD2) = PRKD2 (PKD2) (Homo sapiens, UniProt Q9BZL6); assay: Select Screen kinase profiling; assay type: biochemical
Text: as §1

[2] = test system: susceptible fungal strains; assay: Antifungal MIC95 comparison on susceptible fungal strains; assay type: cell-based; settings: MIC95, Table 3 fungal strains
Experimental: Evaluation of antimicrobial activity in vitro. Compounds were tested against the following panel of bacteria and fungi purchased from the American Type Culture Collection (ATCC). Briefly, bacteria were grown to mid-log phase, diluted with fresh medium to an optical density at 600 nm (OD600) of 0.030-0.060 and then diluted again 1:10. This suspension (195 μL) was added to wells in a 96 well microtiter plate (Sarstedt) and 5 μL of compound dissolved in DMSO was added to give a final concentration of 100-0.1 μM at 2.5% DMSO by volume. A DMSO negative control and standard antibiotic positive controls were included in each plate. All compounds were tested in triplicate for each concentration. Plates were sealed with parafilm, placed in a Ziploc bag to prevent evaporation, and incubated at 30° C. (fungi) or 37° C. (bacteria) for 16-20 hours (48 hours for C. neoformans). The OD600 values for each well were determined with a plate reader (Biotek, EL800) and the data were standardized to the DMSO control wells after subtracting the background from blank medium. Initial single concentrations were tested at 100 μM and active compounds were further tested with at least nine concentrations for a full dose response. Dose response curves were generated using GraphPad Prism 5 software and used to determine the MIC95 concentrations (minimal concentration that inhibits 95% of growth). […]

Clc1nc(Cl)c2[nH]ccc2n1 [Compound 19, 2,4-Dichloropyrrolo[3,2-d]pyrimidine]
annexin V-positive cells (MDA-MB-231 cells): modest (although statistically significant) increase
IC50 [1]: 19 µM

Clc1nc(Cl)c2sccc2n1 [Compound 1, 2,4-Dichlorothieno[3,2-d]pyrimidine]
inhibition at 5 µM (PRKCN (PKD3)): < 40%
inhibition at 5 µM (MET (cMet)): < 40%
inhibition at 5 µM (FRAP1 (mTOR)): < 40%
inhibition at 5 µM (JAK1): < 40%
inhibition at 5 µM (PIK3CD/PIK3R1): < 40%
inhibition at 5 µM (PIK3CA/PIK3R1): < 40%
inhibition at 5 µM (SRC N1): < 40%
inhibition at 5 µM (PIK3C3): < 40%
inhibition at 5 µM (PIK3C2B): < 40%
inhibition at 5 µM (JAK2 JHI JH2): < 40%
inhibition at 5 µM (PRKD1 (PKC mu)): < 40%
inhibition at 5 µM (LTK (TYK1)): < 40%
inhibition at 5 µM (JAK2): < 40%
inhibition at 5 µM (TYK2): < 40%
inhibition at 5 µM (JAK3): < 40%
inhibition at 5 µM (JAK2 JH1 JH2 V617F): < 40%
inhibition at 5 µM (SRC): < 40%
inhibition at 5 µM (PRKD2 (PKD2)): < 40%

Clc1nc(Cl)c2scc(Br)c2n1 [Compound 2, 7-Bromo-2,4-dichlorothieno[3,2-d]pyrimidine]
times more potent than compound 1 [2]: 2-5
